Source: patent publication US20090325986A1, “Deazapurine Analogs of 1'-Aza-L-Nucleosides” (priority 2005, published 2009)

Key:
Test in all cases: biochemical
bovine PNPase = bovine PNPase (Bos taurus, UniProt P55859); conditions: for Ki: B. taurus PNPase
Text: (§1) The inhibition constants KI are the dissociation constants for the enzyme-inhibitor complex measured from initial reaction rates. For many, but not all, immucillin inhibitors, a slow-onset of inhibition then occurs consequent upon a time dependent conformational change in the enzyme that leads to tighter binding characterised by the constant KI* (J. F. Morrison and C. T. Walsh, Adv, Enzymol. Relat. Areas Mol. Biol., 1988, 61, 201-310).

plasmodial PNPase = plasmodial PNPase (Plasmodium falciparum, UniProt Q8I3X4)
plasmodial PNPase, sequence (Q8I3X4 whole entry): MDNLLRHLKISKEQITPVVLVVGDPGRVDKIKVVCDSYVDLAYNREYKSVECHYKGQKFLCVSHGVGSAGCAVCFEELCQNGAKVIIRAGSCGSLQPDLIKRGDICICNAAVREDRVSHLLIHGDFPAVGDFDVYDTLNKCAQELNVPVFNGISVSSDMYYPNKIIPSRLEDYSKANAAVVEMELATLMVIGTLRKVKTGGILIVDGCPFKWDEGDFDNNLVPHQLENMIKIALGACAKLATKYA
Text: as §1

human PNPase = human PNPase (Homo sapiens, UniProt P00491); conditions: for Ki: H. sapiens PNPase
human PNPase, sequence (P00491 whole entry): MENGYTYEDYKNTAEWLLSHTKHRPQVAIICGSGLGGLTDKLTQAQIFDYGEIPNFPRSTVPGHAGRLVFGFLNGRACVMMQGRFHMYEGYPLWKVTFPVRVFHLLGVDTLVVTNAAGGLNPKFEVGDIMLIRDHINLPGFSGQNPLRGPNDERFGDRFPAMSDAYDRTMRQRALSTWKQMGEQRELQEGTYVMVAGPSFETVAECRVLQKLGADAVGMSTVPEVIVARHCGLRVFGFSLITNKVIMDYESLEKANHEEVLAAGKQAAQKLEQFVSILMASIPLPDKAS
Text: as §1

[1] = Ki*, tighter binding after slow-onset inhibition
[2] = Ki, dissociation constant of enzyme-inhibitor complex from initial reaction rates
[3] = Ki, Plasmodium falciparum PNPase, dissociation constant of enzyme-inhibitor complex from initial reaction rates

bovine PNPase, sequence (P55859 whole entry): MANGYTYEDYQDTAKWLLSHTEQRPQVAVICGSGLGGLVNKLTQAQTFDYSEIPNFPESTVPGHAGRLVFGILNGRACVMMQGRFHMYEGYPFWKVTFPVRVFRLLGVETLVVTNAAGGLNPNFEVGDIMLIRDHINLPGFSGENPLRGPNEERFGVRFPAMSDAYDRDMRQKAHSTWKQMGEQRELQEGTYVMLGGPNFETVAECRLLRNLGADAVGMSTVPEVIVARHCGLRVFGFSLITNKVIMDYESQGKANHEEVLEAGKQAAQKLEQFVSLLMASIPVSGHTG

Row | Structure (SMILES) | Ki (bovine PNPase; [1]) [nM] | Ki (bovine PNPase; [2]) [nM] | Ki (plasmodial PNPase; [3]) [nM] | Ki* (plasmodial PNPase; Plasmodium falciparum PNPase, tighter binding after slow-onset inhibition) | type of inhibition (bovine PNPase; bovine PNP) | Ki (plasmodial PNPase; Ki*, Plasmodium falciparum PNPase, tighter binding after slow-onset inhibition) [nM] | type of inhibition (plasmodial PNPase; Plasmodium falciparum PNP) | Ki (human PNPase; [1]) [nM] | Ki (human PNPase; [2]) [nM] | type of inhibition (human PNPase; human PNP)
1 | O=c1[nH]cnc2c(CN3C[C@H](CO)[C@@H](O)C3)c[nH]c12 [[(+)-10], reference compound] | 0.11 ± 0.014 | 2.1 ± 0.3 | 0.5 ± 0.04 | Not observed |  |  |  |  |  | 
2 | O=c1[nH]cnc2c(CN3C[C@@H](CO)[C@H](O)C3)c[nH]c12 [[(−)-10], (3S,4S)-1-[(9-Deazahypoxanthin-9-yl)methyl]-4-(hydroxymethyl)pyrrolidin-3-ol] | 0.5 ± 0.1 | 19 ± 5 | 1700 ± 300 |  | slow onset tight binding inhibitor | 80 ± 7 | slow onset tight binding inhibitor | 0.68 ± 0.26 | 1.5 ± 0.1 | slow onset tight binding inhibitor
